System: Bipolaris sorokiniana
Test: greenhouse-based plant pathogen assay: protection of wheat plants from Bipolaris sorokiniana damage
Assay type: in vivo
Settings: two-week-old wheat plants sprayed with 1 μM, inoculated 24 h after treatment, symptoms quantified ten days after inoculation; compared with un-modified ascr #18; *P≤0.04
Protocol: The efficacy of the zinc salt of ascr #18 was compared to free ascr #18 in a greenhouse-based plant pathogen assay. Two-week-old wheat plants were sprayed with a solution containing 1 μM ascr #18, or 1 μM of the zinc salt (ascr #18)2Zn. 24 h after treatment, the plants were inoculated with spores of Bipolaris sorokiniana (causal agent of root rot and brown spot blotch). Disease symptoms were quantified ten days after inoculation by measuring the symptomatic area on the leaves.

Compound: CC(CCCCCCCCC(=O)[O-])OC1OC(C)C(O)CC1O.CC(CCCCCCCCC(=O)[O-])OC1OC(C)C(O)CC1O.[Zn+2] (stereo not shown) [(ascr #18)2Zn]
- protection against pathogen damage (symptomatic area on the leaves): better protection against pathogen damage than un-modified ascr #18

Reference: patent publication US20250346621A1, “ASCAROSIDE SALTS” (Ascribe Bioscience Inc., priority 2022, published 2025)
